Biological target: Vasopressin V2 receptor (Sus scrofa, UniProt P32307)
Test: Tested for the inhibition to V2 subtype receptor using [3H]- (VS2) as radioligand at 3 nM and arginine-vasopressin at 2 uM in LLCPKI cells
Assay type: cell-based

Chain of Vasopressin V2 receptor (P32307 whole entry): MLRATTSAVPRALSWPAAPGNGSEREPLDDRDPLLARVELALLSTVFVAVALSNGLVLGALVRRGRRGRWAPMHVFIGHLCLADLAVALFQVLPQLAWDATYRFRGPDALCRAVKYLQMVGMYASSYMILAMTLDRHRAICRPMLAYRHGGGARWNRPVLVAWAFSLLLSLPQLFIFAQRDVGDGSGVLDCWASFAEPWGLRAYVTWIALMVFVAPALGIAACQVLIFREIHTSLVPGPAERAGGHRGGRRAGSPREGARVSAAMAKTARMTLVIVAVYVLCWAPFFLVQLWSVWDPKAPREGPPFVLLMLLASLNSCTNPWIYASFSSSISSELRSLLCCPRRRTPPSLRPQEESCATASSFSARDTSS

SMILES: NC(=O)CC[C@@H]1NC(=O)[C@H](Cc2ccccc2)NC(=O)[C@H](Cc2ccc(O)cc2)NC(=O)[C@@H](N)CSSSC[C@@H](C(=O)N2CCC[C@H]2C(=O)N[C@@H](CCCN=C(N)N)C(=O)NCC(N)=O)NC(=O)[C@H](CC(N)=O)NC1=O
- IC50: 9.5 nM
